Here are results for 11 molecules from patent US7996156B2, “Methods for predicting properties of molecules” (priority 2002, dated 2011).

Experiment [1] is described as follows: Minimum inhibitory concentration of cephalosporin antibiotics. Details: unit not given here. In kind it is cell-based. An excerpt: This example describes the application of the disclosed CoSCoSA methods to model the minimum inhibitory concentration of cephalosporin antibotics, using only the through-bond (COSY-type) connections between carbons and between carbons and nitrogens in their structures. Bin sizes of 3 ppm by 3 ppm for carbon to carbon bins were used, and 10 ppm by 3 ppm for the nitrogen to carbon bins. […] The structures of the cephalosporins used in the model are shown below.

On the set-up of experiment [2]: unit not given here. The following applies: Minimal Inhibitory Concentration; cited from earlier work.
For a further experiment, the target named is T1, aromatase enzyme (Homo sapiens, UniProt P11511).
T1 sequence (P11511 1-503): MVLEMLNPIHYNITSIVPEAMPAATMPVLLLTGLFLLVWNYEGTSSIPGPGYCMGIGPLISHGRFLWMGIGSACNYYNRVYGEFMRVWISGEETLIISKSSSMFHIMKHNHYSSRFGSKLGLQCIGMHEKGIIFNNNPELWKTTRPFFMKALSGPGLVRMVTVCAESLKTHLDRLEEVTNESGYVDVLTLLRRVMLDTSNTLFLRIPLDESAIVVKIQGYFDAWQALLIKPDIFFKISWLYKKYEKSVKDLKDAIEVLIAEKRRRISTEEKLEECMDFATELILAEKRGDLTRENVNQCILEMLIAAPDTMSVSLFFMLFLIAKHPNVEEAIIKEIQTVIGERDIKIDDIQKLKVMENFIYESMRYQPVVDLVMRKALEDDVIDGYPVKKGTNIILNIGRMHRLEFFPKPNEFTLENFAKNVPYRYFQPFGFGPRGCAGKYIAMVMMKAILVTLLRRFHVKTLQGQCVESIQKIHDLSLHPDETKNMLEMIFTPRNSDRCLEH
The following applies: 50 steroids of Table 8; cited from earlier work.

Another experiment concerns the target T2, estrogen receptor (Rattus norvegicus, UniProt P06211).
T2 construct: in rat uterine cytosol, which was obtained from ovariectomized uteri of Sprague-Dawley rats; from tissue; host or cells: uterine cytosol of ovariectomized Sprague-Dawley rats
T2 sequence (P06211 1-600): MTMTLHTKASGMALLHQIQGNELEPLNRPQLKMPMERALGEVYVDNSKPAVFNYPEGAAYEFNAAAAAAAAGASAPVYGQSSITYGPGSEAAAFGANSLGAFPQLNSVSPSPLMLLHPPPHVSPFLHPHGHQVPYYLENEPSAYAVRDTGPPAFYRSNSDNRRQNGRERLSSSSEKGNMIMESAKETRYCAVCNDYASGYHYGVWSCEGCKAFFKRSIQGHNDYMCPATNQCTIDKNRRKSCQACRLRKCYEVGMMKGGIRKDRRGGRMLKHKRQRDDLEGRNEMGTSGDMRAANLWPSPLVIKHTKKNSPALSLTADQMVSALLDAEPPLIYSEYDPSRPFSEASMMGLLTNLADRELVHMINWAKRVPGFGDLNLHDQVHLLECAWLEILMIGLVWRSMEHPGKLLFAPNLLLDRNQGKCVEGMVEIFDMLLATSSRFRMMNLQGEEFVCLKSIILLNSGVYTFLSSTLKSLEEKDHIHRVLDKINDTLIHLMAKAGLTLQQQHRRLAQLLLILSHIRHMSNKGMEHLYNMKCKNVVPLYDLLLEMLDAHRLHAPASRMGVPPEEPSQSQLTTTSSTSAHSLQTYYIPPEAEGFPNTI
The following applies: background statement; cited from earlier work.

As for `CO[C@@]1(NC(=O)CSCC#N)C(=O)N2C(C(=O)O)=C(CSc3nnnn3C)CS[C@@H]21` [Cefmetazole], in experiment [1], the “Log(1/MIC)” value is −1.20. The MIC in experiment [2] is 16.
As to `CO[C@@]1(NC(=O)Cc2cccs2)C(=O)N2C(C(=O)O)=C(COC(N)=O)CS[C@@H]21` [Cefoxitin], in experiment [1], the “Log(1/MIC)” value is on record as −1.20. Further, in experiment [2], the MIC is 16.
As for `CC(C)(O/N=C(\C(=O)N[C@@H]1C(=O)N2C(C(=O)[O-])=C(C[n+]3ccccc3)CS[C@H]12)c1csc(N)n1)C(=O)O` [Ceftazidime], in experiment [1], the “Log(1/MIC)” value is given as −1.20. Besides, in experiment [2], the MIC was 16.
For `CO/N=C(\C(=O)N[C@@H]1C(=O)N2C(C(=O)O)=CCS[C@H]12)c1csc(N)n1` [Ceftizoxime], the “Log(1/MIC)” value in experiment [1] is reported as “−.90”. For the same molecule, the MIC in experiment [2] is 8.
For `CO/N=C(\C(=O)N[C@@H]1C(=O)N2C(C(=O)O)=C(COC(N)=O)CS[C@H]12)c1ccco1` [Cefuroxime], the “Log(1/MIC)” value in experiment [1] is listed as “−.60”. Further, in experiment [2], the MIC was 4.
Take `CC1=C(C(=O)O)N2C(=O)[C@@H](NC(=O)[C@H](N)c3ccccc3)[C@H]2SC1` [Cephalexin]: the “Log(1/MIC)” value in experiment [1] is on record as “−.90”. In addition, the MIC in experiment [2] is given as 8.
As for `CC(=O)OCC1=C(C(=O)O)N2C(=O)[C@@H](NC(=O)Cc3cccs3)[C@H]2SC1` [Cephalothin], the “Log(1/MIC)” value in experiment [1] is reported as “−.90”. Also, the MIC in experiment [2] was 8.
With `CC(=O)OCC1=C(C(=O)O)N2C(=O)[C@@H](NC(=O)CSc3ccncc3)[C@H]2SC1` [Cephapirin], the “Log(1/MIC)” value in experiment [1] is listed as “−.90”. In addition, the MIC in experiment [2] is 8.
For `CC1=C(C(=O)O)N2C(=O)[C@@H](NC(=O)[C@H](N)C3=CCC=CC3)[C@H]2SC1` [Cephradine], the “Log(1/MIC)” value in experiment [1] was “−.90”. Moreover, in experiment [2], the MIC is on record as 8.
On to `C/C=C1\CC2C(CC[C@]3(C)C(=O)CCC23)[C@@]2(C)CCC(=O)C=C12` (some centres unmarked) [compound 50], for which the “Binding (experimental binding data, aromatase enzyme)” value on aromatase enzyme is 0.96.
As to `C/C(=C(/C)c1ccc(O)cc1)c1ccc(O)cc1` [dimethystilbesterol], at estrogen receptor, the “binding to the estrogen receptor (in words)” value is “bind strongly”.
